Measured values: patent US20050004039A1, “Selective analgesic agents” (Regents of the University of Minnesota, priority 2002, published 2005)

Key:
mice [1] = experiment: Antagonism of selective opioid agonist-induced antinociception, intrathecal, modified tail flick assay; format: in vivo, mouse; conditions: for norBNI antagonism of antinociception with co-administered dynorphin-A antiserum (DAS): FIG. 7, FIG. 8
[2] = tested on: guinea pig ileum preparation; experiment: Guinea pig ileal longitudinal muscle preparation, electrically stimulated contraction; conditions: guinea pig ilium preparation
[3] = tested on: mouse vas deferens preparation; experiment: Mouse vas deferens preparation (MVD)
Method: Mouse vasa deferentia are prepared using the method of Henderson, et al (see Henderson, G.; Hughes, J.; Kosterlitz, H. W., Br. J. Pharmacol. 1972, 46, 764-766). Male ICR mice (30-35 g) are killed by cervical dislocation. Both vasa deferentia are removed and mounted between platinum ring electrodes and placed in a 10-mL organ bath containing a modified Kreb's solution (NaCl, 118 mM; KCl, 4.70 mM;CaCl2, 2.52 mM; KH2PO4, 1.19 mM; NaHCO3, 25 mM; glucose, 11.48 mM; pH =7.4) at 37° C. The bath is continuously bubbled with a 95% O2, 5% CO2, gas mixture. One end of the vas deferens is attached to the electrode assembly, the other is attached to a Statham-Gould UC-3 isometric force transducer using 6.0 surgical silk. The vasa deferentia are stimulated transmurally with a Grass S44 stimulator (square waves of supramaximal voltage (70 V) for 1 msec and a frequency of 0.1 Hz). Resting tension is 200 mg. Vasa deferentia are stimulated continuously for 20 minutes before each experiment to allow equilibration to occur. The tissues are washed every 10 minutes during this period.

mice [4] = experiment: Tail-flick analgesia after intrathecal or intraventricular administration; format: in vivo, mouse
Source text: In the tail-flick assay which was modified for mice, the animal responses are made quantal by establishing and end point at the mean peak effect which represents an increase in the reaction time of an individual animal of greater than three S.D. of the control mean reaction time for all animals used in the group (see F. E. d'Amour et al., J. Pharmacol. Exp. Ther., 1941, 72, 7479; and J. J. Rady et al., J. Pharmacol Exp. Ther., 2000, 224, 93-101). Non-responding animals will be removed from the heat stimulus when reaction times exceed 3 seconds to avoid damage to their tails. At least 50 animals will be used to determine each peak time and ED50 dose-response curve. The ED50 and its 95% confidence interval are estimated using computer programs for both of these statistical procedures.

[5] = ED50 with nor-BNI / control ED50
[6] = agonist i.t. with antagonist BNTX 25 pmol/mouse i.t.
[7] = agonist i.t. with antagonist CTOP 5.9 pmol/mouse i.t.
[8] = agonist i.t. with antagonist NTB 50 pmol/mouse i.t.
[9] = agonist i.t. with antagonist nor-BNI 2.5 nmol/mouse i.t.
[10] = intrathecal (i.t.) administration

[D-Pen^2,5]enkephalin [DPDPE]
Potency Ratio (95% C.I.) (mice [1]; ED50 with BNTX / control ED50): 10.61 (6.08-18.51)
Potency Ratio (95% C.I.) (mice [1]; ED50 with CTOP / control ED50): 1.43 (1.06-1.93)
Potency Ratio (95% C.I.) (mice [1]; ED50 with NTB / control ED50): 0.98 (0.71-1.41)
Potency Ratio (95% C.I.) (mice [1]; [5]): 12.44 (9.91-15.83)
norBNI antagonism of antinociception with co-administered dynorphin-A antiserum (DAS) (mice [1]): failed to substantially reduce the potent norBNI antagonism
ED50 (95% C.I.) (mice [1]; [6]): 41.10 (26.44-60.95) nmol/mouse
ED50 (95% C.I.) (mice [1]; [7]): 5.11 (4.04-6.37)) nmol/mouse
ED50 (95% C.I.) (mice [1]; [8]): 3.44 (2.69-4.45) nmol/mouse
ED50 (95% C.I.) (mice [1]; [9]): 43.30 (36.40-51.59) nmol/mouse
antagonism of antinociception by BNTX, in words (mice [1]; i.t., mice): antagonized
antagonism of antinociception by nor-BNI (κ antagonist), in words (mice [1]; i.t., mice): antagonized

C[C@@H](NC(=O)[C@@H](N)Cc1ccc(O)cc1)C(=O)NCC(=O)N(C)[C@@H](Cc1ccccc1)C(=O)NCCO [DAMGO, [D-Ala^2,N-Me-Phe^4,Gly-ol^5]enkephalin]
Potency Ratio (95% C.I.) (mice [1]; ED50 with BNTX / control ED50): 1.50 (0.94-2.83)
Potency Ratio (95% C.I.) (mice [1]; ED50 with CTOP / control ED50): 9.89 (5.91-15.34)
Potency Ratio (95% C.I.) (mice [1]; ED50 with NTB / control ED50): 1.20 (0.61-3.26)
Potency Ratio (95% C.I.) (mice [1]; [5]): 26.26 (16.30-46.90)
norBNI antagonism of antinociception with co-administered dynorphin-A antiserum (DAS) (mice [1]): little if any antagonism
ED50 (95% C.I.) (mice [1]; [6]): 0.017 (0.012-0.027) nmol/mouse
ED50 (95% C.I.) (mice [1]; [7]): 0.112 (0.070-0.157) nmol/mouse
ED50 (95% C.I.) (mice [1]; [8]): 0.014 (0.008-0.027) nmol/mouse
ED50 (95% C.I.) (mice [1]; [9]): 0.283 (0.202-0.417) nmol/mouse
antagonism of antinociception by CTOP (μ antagonist), in words (mice [1]; i.t., mice): antagonized
antagonism of antinociception by nor-BNI (κ antagonist), in words (mice [1]; i.t., mice): antagonized

NC(N)=Nc1ccc2c3c([nH]c2c1)[C@@H]1Oc2c(O)ccc4c2[C@@]12CCN(CC1CC1)C(C4)[C@]2(O)C3 [compound 7, 6′-Guanidino-17-(cyclopropylmethyl)-6,7-didehydro-4,5α-epoxy-3,14-hydroxyindolo-[2′,3′:6,7]morphinian]
antagonism of agonist effect by delta antagonist naltrindole (NTI) [2]: non-competetively antagonized
agonist or antagonist activity in MVD [3]: inactive as an agonist or as an antagonist
analgesia (mice [4]; icv, concentration 20-fold that of the i.t. dose): 20%
ED50 analgesia (mice [4]; [10]): 0.45 nmol/mouse
antagonism of i.t. analgesia by norBNI (mice [4]; [10]): could be antagonized by norBNI
analgesic effect (mice [4]; intraventricular (icv), 10-fold higher concentration than i.t.): no analgesic effect
